Assay results as given in ChEMBL document CHEMBL3351610, “Synthesis and biological evaluation of substituted 4-(thiophen-2-ylmethyl)-2H-phthalazin-1-ones as potent PARP-1 inhibitors” (Bioorg Med Chem Lett, 2014).

biological target: Poly [ADP-ribose] polymerase 1 (Homo sapiens, UniProt P09874); assay: Inhibition of human PARP1
Sequence (P09874 whole entry): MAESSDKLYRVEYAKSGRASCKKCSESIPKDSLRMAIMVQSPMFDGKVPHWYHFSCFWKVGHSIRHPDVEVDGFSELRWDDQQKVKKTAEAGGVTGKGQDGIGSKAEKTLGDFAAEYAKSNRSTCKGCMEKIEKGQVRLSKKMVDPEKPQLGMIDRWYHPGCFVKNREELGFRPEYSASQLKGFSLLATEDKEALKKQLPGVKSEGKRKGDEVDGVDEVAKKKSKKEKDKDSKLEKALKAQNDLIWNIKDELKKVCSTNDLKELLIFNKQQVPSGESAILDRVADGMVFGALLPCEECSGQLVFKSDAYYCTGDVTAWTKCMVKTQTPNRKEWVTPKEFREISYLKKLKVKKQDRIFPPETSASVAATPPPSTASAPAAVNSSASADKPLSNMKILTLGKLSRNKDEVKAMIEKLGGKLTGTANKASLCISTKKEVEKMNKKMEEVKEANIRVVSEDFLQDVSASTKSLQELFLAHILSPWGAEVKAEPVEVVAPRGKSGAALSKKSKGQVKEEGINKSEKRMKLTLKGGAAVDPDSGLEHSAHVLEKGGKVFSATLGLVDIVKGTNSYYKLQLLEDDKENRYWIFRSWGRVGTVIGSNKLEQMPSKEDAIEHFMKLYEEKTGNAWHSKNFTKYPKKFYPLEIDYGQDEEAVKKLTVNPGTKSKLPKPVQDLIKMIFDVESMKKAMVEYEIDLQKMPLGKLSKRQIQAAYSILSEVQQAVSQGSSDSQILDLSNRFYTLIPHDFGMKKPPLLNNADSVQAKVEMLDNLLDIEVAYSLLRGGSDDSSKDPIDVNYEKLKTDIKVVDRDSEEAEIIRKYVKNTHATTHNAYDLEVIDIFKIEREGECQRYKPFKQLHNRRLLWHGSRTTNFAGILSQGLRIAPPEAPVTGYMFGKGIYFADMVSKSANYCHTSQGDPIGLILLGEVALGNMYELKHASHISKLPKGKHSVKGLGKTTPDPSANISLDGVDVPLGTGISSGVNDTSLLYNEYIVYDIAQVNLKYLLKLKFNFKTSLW

SMILES	IC50 [nM]
COc1ccc(CC(=O)N2CCN(C(=O)c3csc(Cc4n[nH]c(=O)c5ccccc45)c3)CC2)cc1	94.9
CCC(=O)N1CCN(C(=O)c2csc(Cc3n[nH]c(=O)c4ccccc34)c2)CC1	78.6
O=C(c1csc(Cc2n[nH]c(=O)c3ccccc23)c1)N1CCN(C(=O)C2CC2)CC1	105
N#Cc1ccc(C(=O)N2CCN(C(=O)c3csc(Cc4n[nH]c(=O)c5ccccc45)c3)CC2)cc1	85.5
O=C(c1csc(Cc2n[nH]c(=O)c3ccccc23)c1)N1CCN(C(=O)c2ccc3c(c2)OCO3)CC1	39.6
O=C(c1csc(Cc2n[nH]c(=O)c3ccccc23)c1)N1CCN(C(=O)c2cccs2)CC1	10.8
O=C(c1csc(Cc2n[nH]c(=O)c3ccccc23)c1)N1CCN(C(=O)c2ccccn2)CC1	46.1

The remaining lines, values ahead:

IC50 [nM]	SMILES
108	O=C(c1ccncc1)N1CCN(C(=O)c2csc(Cc3n[nH]c(=O)c4ccccc34)c2)CC1
124	CC(=O)N1CCN(C(=O)c2csc(Cc3n[nH]c(=O)c4ccccc34)c2)CC1
72.3	O=C(c1ccc(Br)cc1)N1CCN(C(=O)c2csc(Cc3n[nH]c(=O)c4ccccc34)c2)CC1
